Experimental data: patent publication US8933099B2, “Monocyclic pyridine derivative” (Eisai R&D Management Co., Ltd., priority 2013, dated 2015)

Assays:
[1] = test system: normal human umbilical vein endothelial cells (HUVEC); assay: HUVEC growth inhibition assay (VEGF-induced); assay type: cell-based; conditions: Homo sapiens, HUVEC, 72 h, read-out: HUVEC (IC50 (nM)), growth in the presence of VEGF 10 ng/mL, 3 days
Experimental: The absorbance value was measured with ENVISION™ (PerkinElmer Co., Ltd.) at 450 nm. The absorbance values of the wells without adding the test substance but with VEGF addition was defined as 100% and the absorbance values of the wells with neither the test substance nor VEGF addition was defined as 0%.

[2] = test system: human stomach cancer cell line SNU-16 (FGFR2 gene amplification); assay: SNU-16 growth inhibition assay; assay type: cell-based; conditions: Homo sapiens, SNU-16, 72 h, read-out: SNU-16 (IC50 (nM)), cell growth, 3 days, Cell Counting Kit-8
Experimental: In this assay, the growth inhibitory activity of a test substance in a human stomach cancer cell line harboring FGFR2 gene amplification is measured.
Then, 10 μL of Cell Counting Kit-8 (Dojindo Laboratories, CK04) was added to each well, and the resultant was incubated for 1 to 2 hours in a 5% CO2 incubator (37° C.) to cause a color reaction. The absorbance value was measured with ENVISION™ (PerkinElmer Co., Ltd.) at 450 nm.

| Structure (SMILES) | IC50 [1] [nM] | IC50 [2] [nM] |
| --- | --- | --- |
| CNC(=O)n1ccc2cc(Oc3ccnc(NC(=O)c4ccc(OCCN5CCC(O)CC5)cc4)c3)c(OC)cc21 [Example 12, 5-((2-(4-(2-(4-Hydroxypiperidin-1-yl)ethoxy)benzamide)pyridin-4-yl)oxy)-6-methoxy-N-methyl-1H-indole-1-carboxamide] | 141 | 13 |
| CNC(=O)n1ccc2cc(Oc3ccnc(NC(=O)c4ccc(C5CCN(C[C@H](C)O)CC5)cc4)c3)c(OCCCF)cc21 [Example 75] | 211 | 7.3 |
| CCOCCOc1cc2c(ccn2C(=O)NC)cc1Oc1ccnc(NC(=O)c2ccc(C3CCN(CC)CC3)nc2)c1 [Example 28, 6-(2-Ethoxyethoxy)-5-((2-(6-(1-ethylpiperidin-4-yl)nicotinamide)pyridin-4-yl)oxy)-N-methyl-1H-indole-1-carboxamide] | 664 | 7.3 |
| CCOCCOc1cc2c(ccn2C(=O)NC)cc1Oc1ccnc(NC(=O)c2ccc(C3CCN(C[C@@H](C)O)CC3)cc2)c1 [Example 111] | 195 | 5.1 |
| CNC(=O)n1ccc2cc(Oc3ccnc(NC(=O)c4ccc(CN5CCC[C@@H]5CO)cc4)c3)c(OC)cc21 [Example 50] | 394 | 16.6 |
| CNC(=O)n1ccc2cc(Oc3ccnc(NC(=O)c4ccc(CN5CC[C@@H](O)C5)s4)c3)c(OCCOC)cc21 [Example 85] | 235 | 6.9 |
| CNC(=O)n1ccc2cc(Oc3ccnc(NC(=O)c4ccc(C5CCN(C[C@H](C)O)CC5)cc4)c3)c(OC(C)C)cc21 [Example 66] | 203 | 16.1 |
| CCN1CCC(Oc2ccc(C(=O)Nc3cc(Oc4cc5ccn(C(=O)NC)c5cc4OC)ccn3)cc2)CC1 [Example 43] | 166 | 11.8 |
| CNC(=O)n1ccc2cc(Oc3ccnc(NC(=O)c4ccc(C5CCN(C[C@@H](C)O)CC5)cc4)c3)c(OC(C)C)cc21 [Example 18, (R)-5-((2-(4-(1-(2-Hydroxypropyl)piperidin-4-yl)benzamide)pyridin-4-yl)oxy)-6-isopropoxy-N-methyl-1H-indole-1-carboxamide] | 180 | 13.9 |
| CCN1CCC(c2ccc(C(=O)Nc3cc(Oc4cc5ccn(C(=O)NC)c5cc4OC(C)C)ccn3)cc2)CC1 [Example 68] | 256 | 20 |
| CCOCCOc1cc2c(ccn2C(=O)NC)cc1Oc1ccnc(NC(=O)c2ccc(C3CN(CCO)C3)cc2)c1 [Example 27, 6-(2-Ethoxyethoxy)-5-((2-(4-(1-(2-hydroxyethyl)azetidin-3-yl)benzamide)pyridin-4-yl)oxy)-N-methyl-1H-indole-1-carboxamide] | 218 | 6.2 |
| CNC(=O)n1ccc2cc(Oc3ccnc(NC(=O)c4ccc(C5CCN(C(C)C)CC5)nc4)c3)c(OCCOC)cc21 [Example 77] | 1030 | 9.6 |
| CNC(=O)n1ccc2cc(Oc3ccnc(NC(=O)c4ccc(CN5CCC(O)CC5)cc4)c3)c(OCCCF)cc21 [Example 73] | 703 | 17.4 |
| CNC(=O)n1ccc2cc(Oc3ccnc(NC(=O)c4ccc(C5CN(C[C@H](C)O)C5)cc4)c3)c(OCCCOC)cc21 [Example 119] | 242 | 11.9 |
| CNC(=O)n1ccc2cc(Oc3ccnc(NC(=O)c4ccc(C5CCN(C[C@@H](C)O)CC5)cc4)c3)c(OCCCF)cc21 [Example 74] | 198 | 8.4 |
| CNC(=O)n1ccc2cc(Oc3ccnc(NC(=O)c4ccc(C5CN(C[C@H](C)O)C5)cc4)c3)c(OCCOC)cc21 [Example 81] | 126 | 3.8 |
| CNC(=O)n1ccc2cc(Oc3ccnc(NC(=O)c4ccc(C5CCN(CCO)CC5)cc4)c3)c(OC(C)C)cc21 [Example 67] | 223 | 17.6 |
| CNC(=O)n1ccc2cc(Oc3ccnc(NC(=O)c4ccc(C5CCN(C[C@H](C)O)CC5)cc4)c3)c(OCCCOC)cc21 [Example 126] | 197 | 6.6 |
| CNC(=O)n1ccc2cc(Oc3ccnc(NC(=O)c4ccc(C5CCN(C[C@H](C)O)CC5)cc4)c3)c(OCCOC)cc21 [Example 91] | 191 | 5.3 |
